≈ marks a conversion by molar mass, not a printed value.
Key:
Format in all cases: functional
[1] = test system: Nakaseomyces glabratus; experiment: Antifungal activity against Candida glabrata after 48 hrs by broth microdilution
[2] = test system: Pichia kudriavzevii; experiment: Antifungal activity against Candida krusei after 48 hrs by broth microdilution
[3] = test system: Candida parapsilosis; experiment: Antifungal activity against Candida parapsilosis after 48 hrs by broth microdilution; conditions: Lodderomyces parapsilosis
[4] = test system: Candida tropicalis; experiment: Antifungal activity against Candida tropicalis after 48 hrs by broth microdilution
[5] = test system: Aspergillus sp.; experiment: Antifungal activity against Aspergillus sp. after 48 hrs by broth microdilution
[6] = test system: Curvularia; experiment: Antifungal activity against Curvularia species after 48 hrs by broth microdilution
[7] = test system: Fusarium sp.; experiment: Antifungal activity against Fusarium sp. after 48 hrs by broth microdilution
[8] = test system: Paecilomyces variotii; experiment: Antifungal activity against Paecilomyces variotii after 48 hrs by broth microdilution
[9] = test system: Talaromyces marneffei; experiment: Antifungal activity against Penicillium marneffei after 48 hrs by broth microdilution
[10] = test system: Penicillium sp.; experiment: Antifungal activity against Penicillium sp. after 48 hrs by broth microdilution
[11] = test system: Candida albicans; experiment: Antifungal activity against Candida albicans after 48 hrs by broth microdilution
[12] = test system: Candida albicans; experiment: Antifungal activity against Candida albicans assessed as susceptible isolates after 48 hrs by broth microdilution
[13] = test system: Nakaseomyces glabratus; experiment: Antifungal activity against Candida glabrata assessed as susceptible isolates after 48 hrs by broth microdilution
[14] = test system: Pichia kudriavzevii; experiment: Antifungal activity against Candida krusei assessed as susceptible isolates after 48 hrs by broth microdilution
[15] = test system: Candida parapsilosis; experiment: Antifungal activity against Candida parapsilosis assessed as susceptible isolates after 48 hrs by broth microdilution
[16] = test system: Candida tropicalis; experiment: Antifungal activity against Candida tropicalis assessed as susceptible isolates after 48 hrs by broth microdilution
[17] = test system: Candida albicans; experiment: Antifungal activity against Candida albicans assessed as resistant isolates after 48 hrs by broth microdilution
[18] = test system: Nakaseomyces glabratus; experiment: Antifungal activity against Candida glabrata assessed as resistant isolates after 48 hrs by broth microdilution
[19] = test system: Pichia kudriavzevii; experiment: Antifungal activity against Candida krusei assessed as resistant isolates after 48 hrs by broth microdilution
[20] = test system: Candida parapsilosis; experiment: Antifungal activity against Candida parapsilosis assessed as resistant isolates after 48 hrs by broth microdilution
[21] = test system: Candida tropicalis; experiment: Antifungal activity against Candida tropicalis assessed as resistant isolates after 48 hrs by broth microdilution

SMILES	MIC50 [1] [µg/mL]	MIC90 [1] [µg/mL]	MIC50 [2] [µg/mL]	MIC90 [2] [µg/mL]	MIC50 [3] [µg/mL]	MIC90 [3] [µg/mL]	MIC50 [4] [µg/mL]	MIC90 [4] [µg/mL]	MIC50 [5] [µg/mL]	MIC90 [5] [µg/mL]	MIC50 [6] [µg/mL]	MIC90 [6] [µg/mL]	MIC50 [7] [µg/mL]	MIC90 [7] [µg/mL]	MIC50 [8] [µg/mL]	MIC90 [8] [µg/mL]	MIC50 [9] [µg/mL]	MIC90 [9] [µg/mL]	MIC50 [10] [µg/mL]	MIC90 [10] [µg/mL]	also measured
C[C@@H]1[C@H](O)[C@@H](C)/C=C/C=C/C=C/C=C/C=C/C=C/C=C/[C@H](O[C@@H]2O[C@H](C)[C@@H](O)[C@H](N)[C@@H]2O)C[C@@H]2O[C@](O)(C[C@@H](O)C[C@@H](O)[C@H](O)CC[C@@H](O)C[C@@H](O)CC(=O)O[C@H]1C)C[C@H](O)[C@H]2C(=O)O [AMPHOTERICIN B]	1 (≈ 1.08 µM)	1 (≈ 1.08 µM)	1 (≈ 1.08 µM)	2 (≈ 2.16 µM)	1 (≈ 1.08 µM)	1 (≈ 1.08 µM)	1 (≈ 1.08 µM)	1 (≈ 1.08 µM)	0.5 (≈ 0.541 µM)	1 (≈ 1.08 µM)	0.25 (≈ 0.271 µM)	0.5 (≈ 0.541 µM)	0.25 (≈ 0.271 µM)	0.5 (≈ 0.541 µM)	0.25 (≈ 0.271 µM)	0.5 (≈ 0.541 µM)	0.25 (≈ 0.271 µM)	0.5 (≈ 0.541 µM)	0.25 (≈ 0.271 µM)	0.5 (≈ 0.541 µM)	MIC [3]: 1 µg/mL (≈ 1.08 µM); MIC50 [11]: 1 µg/mL (≈ 1.08 µM); MIC90 [11]: 1 µg/mL (≈ 1.08 µM)
OC(Cn1cncn1)(Cn1cncn1)c1ccc(F)cc1F [FLUCONAZOLE]	4 (≈ 13.1 µM)	> 64	32 (≈ 104 µM)	64 (≈ 209 µM)	0.5 (≈ 1.63 µM)	16 (≈ 52.2 µM)	0.25 (≈ 0.816 µM)	> 64	> 64	> 64	> 64	> 64	> 64	> 64	> 64	> 64	> 64	> 64	> 64	> 64	MIC [2]: 32 µg/mL (≈ 104 µM); MIC [3]: 0.5 µg/mL (≈ 1.63 µM); Activity [12]: 67.3%; Activity [13]: 77.3%; Activity [14]: 0%; Activity [15]: 81.8%; Activity [16]: 81.8%; Activity [17]: 30.8%; Activity [18]: 18.2%; Activity [19]: 100%; Activity [20]: 0%; Activity [21]: 18.2%; MIC50 [11]: 1 µg/mL (≈ 3.27 µM); MIC90 [11]: > 64 µg/mL
Nc1nc(=O)[nH]cc1F [FLUCYTOSINE]	0.06 (≈ 0.465 µM)	0.06 (≈ 0.465 µM)	16 (≈ 124 µM)	32 (≈ 248 µM)	0.12 (≈ 0.93 µM)	0.12 (≈ 0.93 µM)	0.06 (≈ 0.465 µM)	0.12 (≈ 0.93 µM)	> 64	> 64	> 64	> 64	> 64	> 64	> 64	> 64	> 64	> 64	> 64	> 64	MIC [4]: 0.06 µg/mL (≈ 0.465 µM); Activity [12]: 100%; Activity [13]: 100%; Activity [14]: 0%; Activity [15]: 100%; Activity [16]: 100%; Activity [17]: 0%; Activity [18]: 0%; Activity [19]: 30%; Activity [20]: 0%; Activity [21]: 0%; MIC50 [11]: 0.12 µg/mL (≈ 0.93 µM); MIC90 [11]: 1 µg/mL (≈ 7.75 µM)
